# Measured values taken from patent publication US9221787B2, “Sulphonamine compounds and methods of making and using same” (Zafgen, Inc., priority 2010, dated 2015).
# Target: T1, recombinant human MetAP2 (Homo sapiens, UniProt P50579)
# T1 construct: Flag; made in house; host or cells: Sf9 insect cells
# Test: Inhibition of recombinant human MetAP2 activity (Amplex red fluorescence assay)
# Format: biochemical
# Settings: manganese enzyme, 0.75 mM Methionine-Alanine-Serine (MAS) substrate, 30 minutes at 25° C., pH 7.5, 1% DMSO
# Protocol: Compounds are tested for their capacity to inhibit recombinant human MetAP2 activity using the following assay.
# Human recombinant Flag-MetAP2 expressed in Sf9 cells followed by affinity purification and EDTA treatment to remove endogenous active site cation is dialysed against MnCl2 to produce the manganese enzyme used in the assay. The assay is carried out for 30 minutes at 25° C. in 50 mM HEPES buffer containing 100 mM NaCl, pH 7.5 the presence of 0.75 mM Methionine-Alanine-Serine (MAS) substrate and […] amino acid oxidase using a dilution of purified MetAP2 giving approximately 50,000 RFU control activity. Cleavage of the substrate by MetAP2 and oxidation of free methionine by amino acid oxidase is detected and quantified using fluorescence generated by Amplex red (10-acetyl-3,7-dihydroxyphenoxazine) in combination with horseradish peroxidase which detects H2O2 released during the oxidation step. The fluorescent signal is detected using a multiwell fluorimeter. Compounds are diluted in DMSO prior to addition to assay buffer, the final DMSO concentration in the assay being 1%.
# The IC50 is defined as the concentration at which a given compound achieves 50% inhibition of control. IC50 values are calculated using the XLfit software package (version 2.0.5).
# T1 sequence (P50579 whole entry): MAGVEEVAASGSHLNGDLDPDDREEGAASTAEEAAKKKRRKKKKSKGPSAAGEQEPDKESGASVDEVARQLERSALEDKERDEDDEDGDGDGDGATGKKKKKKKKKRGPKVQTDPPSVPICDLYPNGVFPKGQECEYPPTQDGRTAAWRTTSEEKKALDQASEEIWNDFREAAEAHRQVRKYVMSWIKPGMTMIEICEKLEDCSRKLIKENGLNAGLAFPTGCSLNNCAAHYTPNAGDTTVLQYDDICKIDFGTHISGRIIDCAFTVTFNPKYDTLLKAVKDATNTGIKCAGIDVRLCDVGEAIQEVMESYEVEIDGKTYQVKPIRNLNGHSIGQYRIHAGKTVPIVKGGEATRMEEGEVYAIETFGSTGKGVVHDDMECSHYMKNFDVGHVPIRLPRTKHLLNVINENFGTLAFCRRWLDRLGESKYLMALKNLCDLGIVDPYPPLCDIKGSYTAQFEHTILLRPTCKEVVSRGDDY
row,IC50,SMILES
1,< 200 nM,O=C(O)c1c(NS(=O)(=O)c2ccccc2)sc2c1CCCO2
2,200 to 2000 nM,"O=C(O)c1c(NS(=O)(=O)c2ccccc2Cl)sc2c1CCCC2 [2-(2-Chlorobenzenesulphonylamino)-4,5,6,7-tetrahydrobenzo[b]thiophene-3-carboxylic acid]"
3,< 200 nM,"CCc1ccccc1S(=O)(=O)Nc1sc2c(c1C(=O)O)CCCC2 [2-(2-Ethylbenzenesulphonylamino)-4,5,6,7-tetrahydrobenzo[b]thiophene-3-carboxylic acid]"
4,200 to 2000 nM,"O=C(O)c1c(NS(=O)(=O)c2ccccc2F)sc2c1CCCC2 [2-(2-Fluorobenzenesulphonylamino)-4,5,6,7-tetrahydrobenzo[b]thiophene-3-carboxylic acid]"
5,< 200 nM,"COc1ccccc1S(=O)(=O)Nc1sc2c(c1C(=O)O)CCCC2 [2-(2-Methoxybenzenesulphonylamino)-4,5,6,7-tetrahydrobenzo[b]thiophene-3-carboxylic acid]"
6,< 200 nM,"Cc1ccccc1S(=O)(=O)Nc1sc2c(c1C(=O)O)CCCC2 [2-(2-Methylbenzenesulphonylamino)-4,5,6,7-tetrahydrobenzo[b]thiophen-3-carboxylic acid]"
7,200 to 2000 nM,"O=C(O)c1c(NS(=O)(=O)c2ccccc2C(F)(F)F)sc2c1CCCC2 [2-(2-Trifluoromethylbenzenesulphonylamino)-4,5,6,7-tetrahydrobenzo[b]thiophene-3-carboxylic acid]"
8,200 to 2000 nM,"O=C(O)c1c(NS(=O)(=O)c2cccc(Cl)c2)sc2c1CCCC2 [2-(3-Chlorobenzenesulphonylamino)-4,5,6,7-tetrahydrobenzo[[b]thiophene-3-carboxylic acid]"
9,200 to 2000 nM,"COc1cccc(S(=O)(=O)Nc2sc3c(c2C(=O)O)CCCC3)c1 [2-(3-Methoxybenzenensulphonylamino)-4,5,6,7-tetrahydrobenzo[b]thiophene-3-carboxylic acid]"
10,200 to 2000 nM,"O=C(O)c1c(NS(=O)(=O)c2ccc(Cl)cc2)sc2c1CCCC2 [2-(4-Chlorobenzenesulphonylamino)-4,5,6,7-tetrahydrobenzo[b]thiophene-3-carboxylic acid]"
11,200 to 2000 nM,"Cc1cc(F)ccc1S(=O)(=O)Nc1sc2c(c1C(=O)O)CCCC2 [2-(4-Fluoro-2-methylbenzenesulphonylamino)-4,5,6,7-tetrahydrobenzo[b]thiophene-3-carboxylic acid]"
12,< 200 nM,"O=C(O)c1c(NS(=O)(=O)c2ccc(F)cc2)sc2c1CCCC2 [2-(4-Fluorobenzenesulphonylamino)-4,5,6,7-tetrahydrobenzo[b]thiophene-3-carboxylic acid]"
13,200 to 2000 nM,"O=C(O)c1c(NS(=O)(=O)C2CCCCC2)sc2c1CCCC2 [2-(Cyclohexanesulphonylamino)-4,5,6,7-tetrahydrobenzo[b]thiophene-3-carboxylic acid]"
14,200 to 2000 nM,"CC1CCc2sc(NS(=O)(=O)c3ccccc3)c(C(=O)O)c2C1 (stereo not shown) [2-Benzenensulphonylamino-5-methyl-4,5,6,7-tetrahydrobenzo[b]thiophene-3-carboxylic acid]"
15,200 to 2000 nM,"Cn1c2c(c(C(=O)O)c1NS(=O)(=O)c1ccccc1)CCCC2 [2-Benzenesulphonylamino-1-methyl-4,5,6,7-tetrahydro-1H-indole-3-carboxylic acid]"
16,< 200 nM,"O=C(O)c1c(NS(=O)(=O)c2ccccc2)sc2c1CCCC2 [2-Benzenesulphonylamino-4,5,6,7-tetrahydrobenzo[b]thiophene-3-carboxylic acid]"

row,IC50,SMILES
1,200 to 2000 nM,"O=C(O)c1c(NS(=O)(=O)c2ccccc2)sc2c1CCOC2 [2-Benzenesulphonylamino-4,7-dihydro-5H-thieno[2,3-c]pyran-3-carboxylic acid]"
2,> 2000 nM,Cc1c(-c2ccccc2)sc(NS(=O)(=O)c2ccccc2)c1C(=O)O [2-Benzenesulphonylamino-4-methyl-5-phenylthiophene-3-carboxylic acid]
3,200 to 2000 nM,"CC1(C)CCc2sc(NS(=O)(=O)c3ccccc3)c(C(=O)O)c2C1 [2-Benzenesulphonylamino-5,5-dimethyl-4,5,6,7-tetrahydrobenzo[b]thiophene-3-carboxylic acid]"
4,200 to 2000 nM,"O=C(O)c1c(NS(=O)(=O)c2ccccc2)sc2c1CCC2 [2-Benzenesulphonylamino-5,6-dihydro-4H-cyclopenta[b]thiophene-3-carboxylic acid]"
5,200 to 2000 nM,Cc1c(-c2ccoc2)sc(NS(=O)(=O)c2ccccc2)c1C(=O)O [2-Benzenesulphonylamino-5-(furan-3-yl)-4-methylthiophene-3-carboxylic acid]
6,> 2000 nM,O=C(O)c1cc(C2CCOCC2)sc1NS(=O)(=O)c1ccccc1 [2-Benzenesulphonylamino-5-(tetrahydropyran-4-yl)thiophene-3-carboxylic acid]
7,200 to 2000 nM,CCc1sc(NS(=O)(=O)c2ccccc2)c(C(=O)O)c1C(C)C [2-Benzenesulphonylamino-5-ethyl-4-isopropylthiophene-3-carboxylic acid]
8,200 to 2000 nM,CCc1sc(NS(=O)(=O)c2ccccc2)c(C(=O)O)c1C [2-Benzenesulphonylamino-5-ethyl-4-methylthiophene-3-carboxylic acid]
9,> 2000 nM,O=C(O)c1cc(-c2ccccc2)sc1NS(=O)(=O)c1ccccc1 [2-Benzenesulphonylamino-5-phenylthiophene-3-carboxylic acid]
10,200 to 2000 nM,"CC1(C)CCc2c(sc(NS(=O)(=O)c3ccccc3)c2C(=O)O)C1 [2-Benzenesulphonylamino-6,6-dimethyl-4,5,6,7-tetrahydrobenzo[b]thiophene-3-carboxylic acid]"
11,200 to 2000 nM,"O=C(O)c1c(NS(=O)(=O)c2ccccc2)sc2c1COCC2 [2-Benzenesulphonylamino-6,7-dihydro-4H-thieno[3,2-c]pyran-3-carboxylic acid]"
12,< 200 nM,"CC1CCc2c(sc(NS(=O)(=O)c3ccccc3)c2C(=O)O)C1 (stereo not shown) [2-Benzenesulphonylamino-6-methyl-4,5,6,7-tetrahydrobenzo[b]thiophene-3-carboxylic acid]"
13,> 2000 nM,O=C(O)c1c(NS(=O)(=O)c2ccccc2)sc2ccccc12 [2-Benzenesulphonylaminobenzo[b]thiophene-3-carboxylic acid]
14,200 to 2000 nM,"O=C(O)c1c(NS(=O)(=O)Cc2ccccc2)sc2c1CCCC2 [2-Phenylmethanesulphonylamino-4,5,6,7-tetrahydrobenzo[b]thiophene-3-carboxylic acid]"
15,200 to 2000 nM,"CCN(CC)C/C=C\c1ccccc1S(=O)(=O)Nc1sc2c(c1C(=O)O)CCCC2 [2-[2-((Z)-3-Diethylaminoprop-1-enyl)benzenesulphonylamino]-4,5,6,7-tetrahydrobenzo[b]thiophene-3-carboxylic acid]"
